# Data as given in ChEMBL document CHEMBL1131784, “The design and synthesis of ALS inhibitors from pharmacophore models” (Bioorg Med Chem Lett, 1999).
# Target: T1, Acetolactate synthase, chloroplastic (Arabidopsis thaliana, UniProt P17597)
# T1 sequence (P17597 whole entry): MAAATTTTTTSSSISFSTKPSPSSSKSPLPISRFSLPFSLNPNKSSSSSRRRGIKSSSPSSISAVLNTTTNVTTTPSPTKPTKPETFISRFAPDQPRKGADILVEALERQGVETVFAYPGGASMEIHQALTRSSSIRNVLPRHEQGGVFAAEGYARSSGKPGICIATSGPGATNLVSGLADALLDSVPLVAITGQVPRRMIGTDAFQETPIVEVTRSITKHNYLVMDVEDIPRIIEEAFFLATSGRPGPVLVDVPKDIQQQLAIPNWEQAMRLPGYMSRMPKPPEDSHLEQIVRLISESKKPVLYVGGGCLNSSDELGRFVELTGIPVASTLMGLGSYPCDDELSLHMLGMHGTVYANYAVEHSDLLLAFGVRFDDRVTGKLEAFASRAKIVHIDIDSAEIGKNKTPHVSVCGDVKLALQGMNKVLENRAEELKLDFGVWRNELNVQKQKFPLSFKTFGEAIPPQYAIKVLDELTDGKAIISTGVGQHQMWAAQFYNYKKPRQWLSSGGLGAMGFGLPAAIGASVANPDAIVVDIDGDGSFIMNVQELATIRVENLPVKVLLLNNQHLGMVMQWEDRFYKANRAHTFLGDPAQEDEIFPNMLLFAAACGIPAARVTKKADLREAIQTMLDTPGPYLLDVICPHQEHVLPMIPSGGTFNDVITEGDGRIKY
# Assay: Inhibitory activity against Acetolactate synthase (ALS) enzyme by using the rape-root growth method
# Conditions: not given
row,Compound,IC50
1,Cc1cccc(C(=O)OCn2ccc(=O)[nH]c2=O)c1,16.04 p.p.m.
2,COc1ccc(C(=O)OCn2ccc(=O)[nH]c2=O)cc1,> 100 p.p.m.
3,O=C(OCn1ccc(=O)[nH]c1=O)c1ccc(Cl)cc1,51.29 p.p.m.
4,O=C(OCn1ccc(=O)[nH]c1=O)c1ccc(Br)cc1,55.38 p.p.m.
5,O=C(OCn1ccc(=O)[nH]c1=O)c1c(Cl)cc(C(F)(F)F)cc1Cl,> 100 p.p.m.
6,O=C(OCn1ccc(=O)[nH]c1=O)c1ccccc1,55.36 p.p.m.
7,COc1ccccc1C(=O)OCn1ccc(=O)[nH]c1=O,> 100 p.p.m.
8,O=C(OCn1ccc(=O)[nH]c1=O)c1ccc([N+](=O)[O-])cc1,> 100 p.p.m.
9,O=C(OCn1ccc(=O)[nH]c1=O)c1ccc(F)cc1,55.86 p.p.m.
10,O=C(OCn1ccc(=O)[nH]c1=O)c1ccc(I)cc1,> 100 p.p.m.

# Further lines, results first:
row,IC50,Compound
1,0.000111 M l-1,COc1cc(Cl)nc(NS(=O)(=O)c2ccc(F)cc2)n1
2,0.000287 M l-1,Cc1ccnc(NS(=O)(=O)c2ccccc2[N+](=O)[O-])n1
3,0.000152 M l-1,Cc1ccc(NS(=O)(=O)c2ccc(F)cc2)nc1
4,> 0.000309 M l-1,Cc1cnc(NS(=O)(=O)c2cc(Cl)ccc2Cl)s1

# Same assay, conditions: read-out: IC50
row,IC50 [µM],Compound
1,84.7,O=S(=O)(Nc1nccs1)c1cc(Cl)ccc1Cl
2,58.9,Cc1ccnc(NS(=O)(=O)c2ccc(Br)cc2)n1
3,38.9,Cc1ccnc(NS(=O)(=O)c2ccc(F)cc2)n1
4,97.2,Cc1ccnc(NS(=O)(=O)c2cc(Cl)ccc2Cl)n1
5,33,Cc1cc(C)nc(NS(=O)(=O)c2cc(Cl)ccc2Cl)n1
